Data reported in the NIST ThermoML archive (doi:10.1021/je050399c).
Numbers after ± are expanded uncertainties.

Conditions: Fluid (supercritical or subcritical phases), Vibrating wire viscometry

**Q.** What does the source list for `N#N` [nitrogen]?
**A.** viscosity (398.15 K, 7507.1 kPa): 0.02294 ± 9.7e-05 mPa·s; viscosity (398.15 K, 8007.6 kPa): 0.02302 ± 9.8e-05 mPa·s; viscosity (398.15 K, 8501 kPa): 0.02311 ± 9.8e-05 mPa·s; viscosity (398.15 K, 9010.3 kPa): 0.02317 ± 9.7e-05 mPa·s; viscosity (398.15 K, 9506.9 kPa): 0.02324 ± 9.9e-05 mPa·s; viscosity (398.15 K, 10005 kPa): 0.02334 ± 0.0001 mPa·s; viscosity (398.15 K, 11003 kPa): 0.0235 ± 0.0001 mPa·s; viscosity (398.15 K, 11989 kPa): 0.02369 ± 0.0001 mPa·s; viscosity (398.15 K, 13002 kPa): 0.02386 ± 0.0001 mPa·s; viscosity (398.15 K, 13997 kPa): 0.02405 ± 0.0001 mPa·s; viscosity (398.15 K, 15013 kPa): 0.02423 ± 0.0001 mPa·s; viscosity (398.15 K, 16005 kPa): 0.02443 ± 0.00011 mPa·s; viscosity (398.15 K, 17010 kPa): 0.02463 ± 0.00011 mPa·s; viscosity (398.15 K, 18010 kPa): 0.02482 ± 0.00011 mPa·s; viscosity (398.15 K, 19003 kPa): 0.02503 ± 0.00011 mPa·s; viscosity (398.15 K, 20019 kPa): 0.02525 ± 0.00011 mPa·s; viscosity (398.15 K, 21009 kPa): 0.02546 ± 0.00011 mPa·s; viscosity (398.15 K, 22011 kPa): 0.02568 ± 0.00011 mPa·s; viscosity (398.15 K, 23034 kPa): 0.0259 ± 0.00011 mPa·s; viscosity (398.15 K, 23993 kPa): 0.0261 ± 0.00011 mPa·s; viscosity (398.15 K, 25001 kPa): 0.02634 ± 0.00012 mPa·s; viscosity (398.15 K, 25977 kPa): 0.02657 ± 0.00012 mPa·s; viscosity (398.15 K, 27031 kPa): 0.02679 ± 0.00012 mPa·s; viscosity (398.15 K, 28028 kPa): 0.02703 ± 0.00012 mPa·s; viscosity (398.15 K, 29028 kPa): 0.02728 ± 0.00012 mPa·s; viscosity (398.15 K, 29911 kPa): 0.02747 ± 0.00012 mPa·s; viscosity (398.15 K, 31023 kPa): 0.02773 ± 0.00012 mPa·s; viscosity (398.15 K, 32013 kPa): 0.02796 ± 0.00012 mPa·s; viscosity (398.15 K, 33034 kPa): 0.02822 ± 0.00012 mPa·s; viscosity (398.15 K, 34043 kPa): 0.02845 ± 0.00012 mPa·s; viscosity (398.15 K, 35040 kPa): 0.02872 ± 0.00013 mPa·s; viscosity (423.15 K, 100.1 kPa): 0.02302 ± 0.00011 mPa·s; viscosity (423.15 K, 200.1 kPa): 0.02305 ± 9.9e-05 mPa·s; viscosity (423.15 K, 300.4 kPa): 0.02307 ± 9.8e-05 mPa·s; viscosity (423.15 K, 400.1 kPa): 0.02309 ± 9.6e-05 mPa·s; viscosity (423.15 K, 600.2 kPa): 0.0231 ± 9.4e-05 mPa·s; viscosity (423.15 K, 800.3 kPa): 0.02312 ± 9.4e-05 mPa·s; viscosity (423.15 K, 1001.1 kPa): 0.02313 ± 9.4e-05 mPa·s; viscosity (423.15 K, 1502.5 kPa): 0.02318 ± 9.5e-05 mPa·s; viscosity (423.15 K, 1997.8 kPa): 0.02322 ± 9.5e-05 mPa·s; viscosity (423.15 K, 2498 kPa): 0.02327 ± 9.5e-05 mPa·s; viscosity (423.15 K, 3002.3 kPa): 0.02332 ± 9.6e-05 mPa·s; viscosity (423.15 K, 3505.8 kPa): 0.02337 ± 9.6e-05 mPa·s; viscosity (423.15 K, 4004 kPa): 0.02342 ± 9.7e-05 mPa·s; viscosity (423.15 K, 4501.2 kPa): 0.02348 ± 9.7e-05 mPa·s; viscosity (423.15 K, 5002.7 kPa): 0.02353 ± 9.7e-05 mPa·s; viscosity (423.15 K, 5502.8 kPa): 0.02358 ± 9.8e-05 mPa·s; viscosity (423.15 K, 6002.2 kPa): 0.02365 ± 9.9e-05 mPa·s; viscosity (423.15 K, 6502.3 kPa): 0.02372 ± 9.8e-05 mPa·s; viscosity (423.15 K, 7003 kPa): 0.02377 ± 9.8e-05 mPa·s; viscosity (423.15 K, 7497.9 kPa): 0.02384 ± 0.0001 mPa·s; viscosity (423.15 K, 8004.2 kPa): 0.02391 ± 0.0001 mPa·s; viscosity (423.15 K, 8503 kPa): 0.02398 ± 0.0001 mPa·s; viscosity (423.15 K, 9004.2 kPa): 0.02405 ± 0.0001 mPa·s; viscosity (423.15 K, 9504.3 kPa): 0.02412 ± 0.0001 mPa·s; viscosity (423.15 K, 10006 kPa): 0.02418 ± 0.0001 mPa·s; viscosity (423.15 K, 11004 kPa): 0.02434 ± 0.0001 mPa·s; viscosity (423.15 K, 11994 kPa): 0.02451 ± 0.0001 mPa·s; viscosity (423.15 K, 13002 kPa): 0.02466 ± 0.0001 mPa·s; viscosity (423.15 K, 14011 kPa): 0.02483 ± 0.00011 mPa·s; viscosity (423.15 K, 15002 kPa): 0.025 ± 0.00011 mPa·s; viscosity (423.15 K, 16009 kPa): 0.02517 ± 0.00011 mPa·s; viscosity (423.15 K, 17009 kPa): 0.02535 ± 0.00011 mPa·s; viscosity (423.15 K, 17999 kPa): 0.02554 ± 0.00011 mPa·s; viscosity (423.15 K, 19008 kPa): 0.02573 ± 0.00011 mPa·s; viscosity (423.15 K, 20008 kPa): 0.02591 ± 0.00011 mPa·s; viscosity (423.15 K, 20987 kPa): 0.02609 ± 0.00011 mPa·s; viscosity (423.15 K, 22009 kPa): 0.0263 ± 0.00011 mPa·s; viscosity (423.15 K, 23014 kPa): 0.02651 ± 0.00011 mPa·s; viscosity (423.15 K, 24019 kPa): 0.02669 ± 0.00012 mPa·s; viscosity (423.15 K, 25024 kPa): 0.02691 ± 0.00012 mPa·s; viscosity (423.15 K, 26017 kPa): 0.02711 ± 0.00012 mPa·s; viscosity (423.15 K, 27035 kPa): 0.02732 ± 0.00012 mPa·s; viscosity (423.15 K, 28010 kPa): 0.02753 ± 0.00012 mPa·s; viscosity (423.15 K, 29015 kPa): 0.02774 ± 0.00012 mPa·s; viscosity (423.15 K, 30011 kPa): 0.02794 ± 0.00012 mPa·s; viscosity (423.15 K, 31001 kPa): 0.02815 ± 0.00012 mPa·s; viscosity (423.15 K, 31988 kPa): 0.02837 ± 0.00012 mPa·s; viscosity (423.15 K, 32989 kPa): 0.02859 ± 0.00012 mPa·s; viscosity (423.15 K, 34020 kPa): 0.02882 ± 0.00012 mPa·s; viscosity (423.15 K, 35050 kPa): 0.02903 ± 0.00012 mPa·s
